Measurements taken from patent publication US11464726B2, “1,4: 3,6 dianhydrohexitols for moisturising the skin” (ROQUETTE FRERES, priority 2017, dated 2022).

Test system: surface layers of the skin (superficial stratum corneum)
Assay: Moisturizing efficiency of gel evaluated by corneometry
Assay type: in vivo, human
Conditions: for mean hydration value (Corneometer capacitance): gel 6% by weight + 1% carbomer, around 2 mg/cm^2, inner forearm, ten volunteers; for Mean variations in % of hydration: (T…h-T0)/T0*100, gel 6% by weight
Method: For this, these polyols were incorporated into a cosmetic preparation for topical use in gel form. […] The placebo consists only of 1% by weight of gelling carbomer in water. The moisturizing efficiency of each of the preparations for topical use was evaluated by corneometry. Corneometry is a scientifically recognized method for measuring the hydration of the surface layers of the skin. It is based on the determination of the capacitance of the superficial stratum corneum. The study was carried out with ten healthy volunteers aged from 18 to 65 years old. The moisturizing efficiency of each of the five formulae was evaluated 1 hour, 2 hours and 4 hours after its application in the laboratory on the inner face of the forearm. […] For each formula, an amount of around 2 mg/cm^2 was applied to an area of 3×3 cm, in non-occlusive epicutaneous mode. In addition to the zones treated with the five formulae, two additional zones were evaluated: one treated with a placebo and the other without treatment for the duration of the study. The measurements were carried out with a Corneometer® CM285 included in a Multiprobe Adapter System MPA® (Courage-Khazaka GmbH, Germany). The instrument determines the capacitance of the epidermis, which is proportional to the water content thereof, at a depth of around 15 μm. This method is based on the difference between the electrical permittivity of the water which is 81 and that of other substances (<7). The probe of the Corneometer (surface area of 49 mm^2) is positioned perpendicular to the test area which was delimited beforehand with a pencil. The measurement of the capacitance lasts 1 second. Each measurement is carried out twice and the average of the two measurements is noted. The instrument gives the values in arbitrary units ranging from 0 to 130, with an error margin of ±3%. Each volunteer rested for around 1 minute in an air-conditioned room before each measurement with the Corneometer® in order to avoid abnormal results due to excessive perspiration or stress. Table 2 below reports the mean hydration values expressed in arbitrary units (AU).

Compound	mean hydration value (Corneometer capacitance) (T0, before application) [AU]	mean hydration value (Corneometer capacitance) (T1 h after application) [AU]	Mean variations in % of hydration (T1 h vs T0) [%]	mean hydration value (Corneometer capacitance) (T2 h after application) [AU]	Mean variations in % of hydration (T2 h vs T0) [%]	mean hydration value (Corneometer capacitance) (T4 h after application) [AU]	Mean variations in % of hydration (T4 h vs T0) [%]	moisturizing power given to the gel (in words, short-term hydration and maintenance over time (T4h vs T0))
C[N+](C)(C)CC(=O)O [Betaine]	43.39	55.61	28.2	54.30	25.1	50.74	16.9	
OCC(O)CO [Glycerol]	42.03	57.05	35.7	56.15	33.6	56.57	34.6	
O[C@@H]1CO[C@H]2[C@@H]1OC[C@@H]2O [Isosorbide, 1,4:3,6-dianhydrosorbitol]	46.54	56.60	21.6	52.88	13.6	52.50	12.8	satisfactory moisturizing power, comparable to that of betaine
OC[C@@H](O)[C@@H](O)[C@H](O)[C@@H](O)CO [Sorbitol]	48.60	54.16	11.4	49.11	1.0	46.91	−3.5	
OC[C@@H](O)[C@H](O)[C@@H](O)CO [Xylitol]	45.94	55.37	20.5	52.68	14.7	45.28	−1.4	
